Experiments:
[1] = tested on: nerve cells or fibroblasts; experiment: Forward differentiation rate with factors carried in DDV; assay type: cell-based; conditions: factor carried in DDV
Description: (§1) This process was repeated 3 times.
as §1

[2] = tested on: nerve cells or fibroblasts; experiment: Transfection rate of factors carried in DDV; assay type: cell-based; conditions: factor carried in DDV
mES cells = experiment: Neural induction of mES cells, quantitative image analysis (Tuj1-positive cells, axon length); assay type: cell-based, mouse; conditions: after neural induction; FIG. 32
Method: Neural induction of mES cells was conducted by adding RA or RA/AMSN19 complex. In particular, 10^−6M RA or 25 μg of RA/AMSN19 (corresponding to 3×10^−6M including RA) was used for treatment of mES cells in a complete mES medium for 2 days. A non-induction group was cultured as a negative control group. After 2 days, the medium was replaced with a new nerve cell culture medium, N2B27. The medium was replaced on alternate days.
For quantitative analysis, 5 representative fluorescent images were obtained from different immunostain samples, respectively. The images were analyzed by an ImageJ program. For Tuj1-positive cell analysis, the number of florescent cells expressing Tuj1 more than a critical value was measured from each image, followed by calculating a ratio of the measured number to a total number of nuclei. For measurement of a length of axon, axons contained in 50 cells in each sample were analyzed by a line measurement device. In consideration of 100 representative axons, an average value was calculated.

| Structure (SMILES) | Forward differentiation rate [1] | Transfection rate [2] | Cell conversion efficiency (rate of Tuj1 positive cells among entire cells survived) (mES cells) |
| --- | --- | --- | --- |
| Nc1ncn([C@@H]2O[C@H](CO)[C@@H](O)[C@H]2O)c(=O)n1 [5-azacytidine] | 5-30% | 50-95% | – |
| CC1=C(/C=C/C(C)=C/C=C/C(C)=C/C(=O)O)C(C)(C)CCC1 [RA, retinoic acid] | – | – | about 30% |

From patent publication US11530132B2, “Composition comprising porous silica particles carrying a cell fate modulating factor” (LEMONEX INC., priority 2017, dated 2022)
